Measurements published in patent publication US9187518B2, “Antiangiogenic brassinosteroid compounds” (CONSEJO NACIONAL DE INVESTIGACIONES CIENTIFICAS Y TECNICAS …, priority 2011, dated 2015).

Tests used:
[1] = system: human corneal cells; experiment: Cytotoxicity assay, corneal cells; assay type: cell-based
Description: (§1) Cell viability was determined as previously reported. The absorbance of each well was measured on a Eurogenetics MPR-A 4i microplate reader using a test wavelength of 570 nm and a reference wavelength of 630 nm. Results were expressed as a percentage of absorbance of treated cells with respect to untreated ones. The CC50 was defined as the concentration of compound that caused 50% reduction in cell viability.

[2] = system: NF-κB p65 subunit; experiment: NF-κB p65 nuclear translocation in LPS-stimulated J774A.1 cells (IFI); assay type: cell-based, murine; details: J774A.1 induced with LPS 8 h, 40 μM (LPS only 79.4±1.2)
Description: J774A.1 cells were grown on coverslips in 24-well plates and stimulated with 100 ng/ml LPS (Sigma) in RPMI without SFB, for 8 h at 37° C.
After incubation, cells were fixed in methanol at −20° C. for 10 min, and processed for indirect immunofluorescence (IFI) with antibodies directed against the glycoprotein D (gD) of HSV-1 and/or the p65 subunit of NF-κB. After three washes with PBS, the coverslips were inverted on a drop of a 1/100 dilution of the first antibody, mouse monoclonal anti-gD and/or rabbit polyclonal anti p65 (Santa Cruz Biotechnology) and incubated for 30 min at 37° C., and then subjected to three additional washes with PBS. […]
The images obtained with a 40× magnification were imported into NIH Image J 1.34s program (designed by Wayne Rasband, NIMH, Bethesda). […] We analyzed the total and nuclear fluorescence of the individual cells and a mean fluorescence density was obtained for each. To compare the distribution of fluorescence within the cell, the results were analyzed in a spreadsheet (Excel®). The total fluorescence intensity or nuclear density was calculated as the total or nuclear average per total or nuclear area, respectively. Then, we calculated the percentage of nuclear intensity or the percentage of nuclear intensity with respect to the total intensity for each cell. […]

[3] = system: IL-8; experiment: IL-8 secretion in epithelial cells (ELISA); assay type: cell-based, human
[4] = system: HUVECs; experiment: Cell invasion assay (transwell, IL-6 stimulated); assay type: cell-based; details: Homo sapiens, HUVEC, 100 ng/ml IL-6, 24 h, read-out: inhibition of HUVECs invasion through the filter
Description: HUVECs' invasion was evaluated using 24-well transwell cell culture chambers with 8 μm pore polycarbonate filter inserts. Cultured HUVECs were trypsinized and suspended in Medium 200 supplemented with LSGS at a concentration of 8×10^5 cells/ml. A total of 4×10^4 of cell suspension was applied to insert filters. We used 100 ng/ml of IL-6 to stimulate cell migration through the inserts. For that, we dispensed 600 μl of medium alone or with the stimulus in the lower chamber, which was then incubated for 24 h at 37° C. to allow cell migration. The insert was removed and migrated cells on the wells were fixed and stained with crystal violet. The wells were examined under a microscope. Migration was quantified by measuring the total stained cells in every well.

[5] = system: HCLE cells infected with HSV-1; experiment: Microarray gene expression in HCLE cells infected with HSV-1; assay type: cell-based, human; details: HCLE infected with HSV-1 (m.o.i.=1), 40 μM, 6 h, vs infected untreated
Description: (§2) HSV-1 infected cells and LPS stimulated cells were transcriptionally analyzed by using the whole human genome microarray and whole mouse genome microarray (Agilent Technologies, Santa Clara, Calif.), corresponding to 41,000 human or mice genes and transcripts.
(§3) RNA was extracted with chloroform/isopropanol and purified from Trizol.
(§4) cDNA synthesis, amplification and labeling of cRNA was performed, following the protocol of two colors of Agilent. Cyanine: 3-CTP and 5-CTP labeled cRNA was prepared from purified RNA (Two-Color Microarray-Based Gene Expression Analysis—Quick Amp Labeling, Agilent). Labeled cRNA was purified, quantified and the efficiency of labeling determined.
After that, we proceeded with the hybridization, washing, assembling of the chips and scanning. […] The fluorescence intensity data obtained for each chip were analyzed using GeneSpring XG11 and Multi Experiment Viewer (MeV) programs. […]
We used the commercial software Agilent Feature Extraction for quality control of the scan. The software converts the scanned images produced in quantitative data for further analysis. […] On the one hand, it performs an analysis of the image to locate the grid on the chip and in it, the spots for each gene, and on the other hand, it makes an analysis of data, to define and measure information (fluorescence intensity) of each spot, for the analysis of gene expression. […]

[6] = system: IL-6; experiment: IL-6 secretion in LPS-stimulated J774A.1 macrophages (ELISA); assay type: cell-based, murine; details: J774A.1 stimulated with 100 ng/ml LPS 8 h, 40 μM
Description: J774A.1 cells grown in 24-well plates were incubated at 37° C. with 100 ng/ml of LPS, in duplicate. After 8 h, supernatants were harvested and murine IL-6 was quantified by commercial ELISA sets (BD OptEIA™, Becton Dickinson, USA) according to manufacturer instructions.

[7] = system: human conjunctival cells; experiment: Cytotoxicity assay, conjunctival cells; assay type: cell-based
Description: as §1

[8] = system: J774A.1 cells stimulated with LPS; experiment: Microarray gene expression in J774A.1 cells stimulated with LPS; assay type: cell-based, mouse; details: J774A.1, 100 ng/ml LPS, 40 μM, 6 h
Description: as §2, §3, §4
After that, we proceeded with the hybridization, washing, assembling of the chips and scanning. The scanner software (Feature extraction) performed the scan quality control. The fluorescence intensity data obtained for each chip were analyzed using GeneSpring XG11 and Multi Experiment Viewer (MeV) programs.
Labeled samples were placed in human and mouse hybridizing chips for HCLE and J774A.1 cells, respectively, during 17 h at 60° C. Successive washings were done with different washing, stabilization and drying solutions, and samples were scanned in the Agilent scanner G2565BA.
We used the commercial software Agilent Feature Extraction for quality control of the scan. The software converts the scanned images produced in quantitative data for further analysis. It calculates the errors associated with hybridization, washing and scanning and detects outliers. On the one hand, it performs an analysis of the image to locate the grid on the chip and in it, the spots for each gene, and on the other hand, it makes an analysis of data, to define and measure information (fluorescence intensity) of each spot, for the analysis of gene expression.
We identified differentially expressed genes with statistical significance. We used two programs, the XG11 and GeneSpring and the Multi Experiment Viewer (MeV).
For this purpose, epithelial infected and inflammatory cells were processed to obtain RNA samples. HCLE cells infected with HSV-1 (m.o.i.=1) and J774A.1 cells stimulated with LPS (100 ng/ml) were treated or not with 40 μM of Compound 1. To extract total RNA, cells were harvested with Trizol at 6 h p.i. and at 6 h post-LPS induction. Eight replicates were obtained from HSV-1 infected and LPS-stimulated cells (four ‘control’ each) and other eight, from infected and LPS-stimulated cells treated with Compound 1 (four ‘treated’ each).

Structure (SMILES): CC[C@@H](C(C)C)[C@H](O)[C@@H](O)[C@@H](C)[C@H]1CC[C@H]2[C@@H]3CCC4=CC(=O)CC[C@]4(C)[C@H]3CC[C@]12C [Compound 1, (22S,23S)-22,23-dihydroxystigmast-4-en-3-one]
- cytotoxicity [1]: no cytotoxicity
- percentage of cells positive for NF-κB translocation to the nucleus [2]: 87.9±0.2%
- IL-8 secretion ([3]; HSV-1 infected HCLE cells, 40 μM, 24 h (untreated infected 142.9±0.5)): 163.6 ± 0.4 pg/mL
- IL-8 secretion ([3]; HSV-1 infected IOBA-NHC cells, 40 μM, 24 h (untreated infected 252±7.8)): 471.8 ± 30 pg/mL
- IL-8 secretion ([3]; uninfected HCLE cells, compound alone, vs basal level): considerably increased
- IL-8 secretion ([3]; uninfected IOBA-NHC cells, compound alone, vs basal level): considerably increased
- inhibition at 10 µM ([4]; 10 μM): 18.4%
- inhibition at 20 µM ([4]; 20 μM): 26.1%
- inhibition at 40 µM ([4]; 40 μM): 67.5%
- expression of IL-1α, IL-8 and CXCL-2 [5]: overexpression
- expression of macrophage colony stimulating factor (CSF-2) [5]: overexpression
- IL-6 level [6]: 838 ± 4.2 pg/mL
- cytotoxicity [7]: no cytotoxicity
- Dusp2 gene expression [8]: restrained
- expression of ATF3 and TLR4 [8]: overexpressed
- expression of IL-10 and Socs2 ([8]; vs untreated control): increased
- expression of genes for IL-12, IL-23 and CXCL10 ([8]; vs untreated stimulated): overexpression
